Measurements: PMC4021201, “Repositioning: the fast track to new anti-malarial medicines?” (Malaria Journal, 2014)

Legend:
[1] = tested on: P. falciparum NF54; test: SYBR I EC50 determination assay (AstraZeneca); format: cell-based; details: Plasmodium falciparum; P. falciparum strain NF54; 72 h; read-out: Pf EC50
Excerpt: (§1) AZ also used a SYBR® I EC50 determination assay, but with P. falciparum NF54 (MRA-1000, MR4, ATCC, Manassas, VA, USA). The per cent inhibition with respect to the control was plotted against the logarithm of the drug concentration. The curve was fitted by non-linear regression using the sigmoidal dose–response (variable slope) formula to yield the concentration–response curves. The concentration at which 50% inhibition was observed was taken as the EC50 value of the compound. A cytotoxicity assay was also performed by AZ, using the human hepatoma Hep G2 cell line and the per cent inhibition and EC50 values were calculated as described for P. falciparum.
AstraZeneca. This group also used a SYBR® I IC50 determination assay. Compounds were serially diluted in 384 well plates (C3570, Corning Life Sciences). 1 µL of compound was dispensed in a 10 point concentration response format using a Biomek Fx liquid dispenser. To this, 50 µL of P. falciparum NF54 (MRA-1000, MR4, ATCC, Manassas, Virginia) ring stage culture at 2% parasitemia and 0.3 % hematocrit was added using a multidrop dispenser. […] After incubation, the % parasitemia in one of the untreated culture control wells was determined by light microscopy. […] Green fluorescence (485 nm excitation/ 530 nm emission) was measured using the Safire 2 fluorimeter (Tecan Instruments). […]

[2] = tested on: human hepatoma Hep G2 cell line; test: Hep G2 cytotoxicity assay (AstraZeneca); format: cell-based; details: HepG2, 72 h
Excerpt: as §1
The human hepatoma Hep G2 cell line was used for the cytotoxicity assay. 1 µL of compound was dispensed in a 10 point concentration response format using a Biomek Fx liquid dispenser into white sterile 384-well opaque bottom plates (C3570, Corning Life Sciences). To this, 50 µL of Hep G2 cells at 3000 cells/well was added using a Multidrop dispenser. The plates were then incubated at 37 °C for 72 h in a 5% CO2 incubator. Resazurin at a final concentration of 10 µM was added to all wells and the plates were incubated at room temperature for 4 h. Fluorescence (excitation 535 nm; emission 590 nm) was measured in a Safire 2 fluorimeter. The % inhibition with respect to the control was plotted against the logarithm of the drug concentration. […]

[3] = tested on: P. berghei; test: Plasmodium berghei four-day suppression test; format: in vivo; details: 100–200 mg/kg BID oral, four days, BALB/c mice, with oral aminobenzotriazole 100 mg/kg
Description: AZ compounds were tested by the company for in vivo efficacy in a standard four-day suppression test using the rodent malaria parasite P. berghei. All animal experimentation protocols were approved by the Institutional Animal Ethics Committee registered with the Government of India (Registration No: 5/1999/CPCSEA). Adult male BALB/c mice (purchased from RCC Laboratories, Hyderabad, India) were used for efficacy studies. Animals were randomly distributed to cages quarantined for one week with veterinary examination and then taken into experimentation. Feed and water were given ad libitum. Briefly, male BALB/c mice were infected intraperitoneally with 2×10^7 infected erythrocytes on day 0. […] On day 3, per cent parasitaemia was estimated microscopically from a Giemsa-stained blood smear. The effect of the test compound on parasite growth was calculated as the difference between the mean value of the control group (taken as 100%) and those of the experimental group and expressed as per cent reduction. Reference anti-malarial compounds (chloroquine and artemisinin) were used as positive controls and the results obtained matched those published in the literature. Pharmacokinetics were analysed in healthy as well as infected mice. Data from healthy mice were used for designing the dosing regimen for the efficacy studies. […]

For `CC(C)Oc1cc(Nc2nc(N[C@@H](C)c3ccc(F)cn3)ncc2Cl)n[nH]1` [AZ-1], the EC50 [1] was 0.6 µM, the EC50 [2] was 10.4 µM and the “growth inhibition in P. berghei-infected mice” value [3] was 50–60%.
